Target: chimeric glucocorticoid VP16/Heliothis ecdysone receptor (UniProt O18473+P04150, DEL153-392/E478D/INS403[…]/INS405[…]/M398P/P396A/P400T/P406S/R399P/S397A/Y393A)
Assay: Maize protoplast GUS reporter assay with pMF6GRVP16HEcR and p221.9GRE6
Type: cell-based, Heliothis virescens
Set-up: expressed in transfected cells; host or cells: maize protoplasts (A10); stably transformed tobacco plants, pES3/pES4 (A11)
Experimental: Protoplasts were isolated from a maize suspension culture derived from BE70×A188 embryogenic callus material, which was maintained by subculturing twice weekly in MS0.5mod. (MS medium supplemented with 3% sucrose, 690 mg/l proline, 1 g/l myo-inositol, 0.2 g/l casein acid hydrolysate, 0.5 mg/l 2,4-D, pH 5.6). Cells from suspensions two days post subculture were digested in enzyme mixture (2.0% Cellulase RS, 0.2% Pectolyase Y23, 0.5 M Mannitol, 5 mM CaCl2.2H2O, 0.5% MES, pH 5.6, ˜660 mmol/kg) using ˜10 ml/g cells, incubating at 25° C., dim light, rotating gently for ˜2 hours. The digestion mixture was sieved sequentially through 250 μm and 38 μm sieves, and the filtrate centrifuged at 700 rpm for 3.5 minutes, discarding the supernatant. The protoplasts were resuspended in wash buffer (0.358 M KCl, 1.0 mM NH4NO3, 5.0 mM CaCl2.2H2O, 0.5 mM KH2PO4, pH 4.8, ˜670 mmol/kg) and pelleted as before. This washing step was repeated. The pellet was resuspended in wash buffer and the protoplasts were counted. Transformation was achieved using a Polyethylene glycol method based on Negrutiu et al. Protoplasts were resuspended at 2×10^6/ml in MaMg medium (0.4 M Mannitol, 15 mM MgCl2, 0.1% MES, pH 5.6, ˜450 mmol/kg) aliquotting 0.5 ml/treatment (i.e. 1×10^6 protoplasts/treatment). […] Protein concentrations of tissue homogenates were determined by the Bio-Rad protein assay (Bradford, 1976). […]

Sequence of chimeric glucocorticoid VP16/Heliothis ecdysone receptor (P04150+O18473 fused with the stated changes): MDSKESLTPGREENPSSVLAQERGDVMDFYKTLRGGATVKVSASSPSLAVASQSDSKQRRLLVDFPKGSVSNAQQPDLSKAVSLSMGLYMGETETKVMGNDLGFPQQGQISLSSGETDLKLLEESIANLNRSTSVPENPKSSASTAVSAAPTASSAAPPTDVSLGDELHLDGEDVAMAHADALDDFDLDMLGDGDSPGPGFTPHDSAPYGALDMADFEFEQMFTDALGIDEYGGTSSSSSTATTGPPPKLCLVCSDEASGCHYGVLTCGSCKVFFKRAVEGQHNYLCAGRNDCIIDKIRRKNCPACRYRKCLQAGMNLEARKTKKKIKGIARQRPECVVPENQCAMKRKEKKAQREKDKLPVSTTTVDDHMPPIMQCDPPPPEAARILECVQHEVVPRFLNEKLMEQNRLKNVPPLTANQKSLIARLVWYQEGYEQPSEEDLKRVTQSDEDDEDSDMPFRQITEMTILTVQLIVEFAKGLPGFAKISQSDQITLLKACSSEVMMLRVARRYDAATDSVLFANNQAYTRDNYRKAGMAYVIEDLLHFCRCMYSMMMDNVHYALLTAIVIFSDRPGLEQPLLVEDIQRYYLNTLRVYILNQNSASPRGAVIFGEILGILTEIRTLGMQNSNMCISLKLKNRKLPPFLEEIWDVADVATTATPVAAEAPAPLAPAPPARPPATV

CCc1ccc(C(=O)NN(C(=O)c2cc(C)cc(C)c2)C(C)(C)C)cc1 [RH5992, 3,5-dimethylbenzoic acid 1-1(1,1-dimethylethyl)-2(4-ethylbenzoyl)hydrazide]
GUS levels relative to positive control (p35SCaMVGUS) (maize protoplasts (FIG. 39)): comparable to those observed with the positive control
levels of expression relative to pMF6GRHEcR (maize protoplasts, 100 μM): enhanced levels of expression

Source: patent US7183061B2, “Method of expressing Heliothis ecdysone receptor fusion protein” (Syngenta Limited, priority 1996, dated 2007)
